From PMC6522510 (Nature Communications, 2019) come the findings set out here.

The subject of test [1] is CMS. The test can be described thus: Secondary dose-response HTS, Cell Titer Glo. It counts as cell-based, human. The note with it: secondary high-throughput screen, CMS; for EC50: read-out: average effective concentration, CMS. (Cellular ATP, detected with luciferase, serves as a proxy for viable cell number.)
In test [2] the test system is ML2. Put plainly: Secondary dose-response HTS, Cell Titer Glo. It counts as cell-based, human. As to conditions: secondary high-throughput screen, ML-2; for EC50: read-out: average effective concentration, ML-2.
The subject of test [3] is M07e. The test can be described thus: Secondary dose-response HTS, Cell Titer Glo. It counts as cell-based, human. As to conditions: secondary high-throughput screen; for EC50: read-out: average effective concentration, M07e.
Test [4] has as its system U937. The test can be described thus: Secondary dose-response HTS, Cell Titer Glo. Format: cell-based, human. The note with it: secondary high-throughput screen, U937; for EC50: read-out: average effective concentration, U937.
Test [5] deals with CMK. Put plainly: Secondary dose-response HTS, Cell Titer Glo. As to conditions: CMK; for EC50: read-out: average effective concentration, CMK. It counts as cell-based, human.
Test [6] has as its system CHRF288-11. Put plainly: Secondary dose-response HTS, Cell Titer Glo. The note with it: secondary high-throughput screen, CHRF288-11; for EC50: Homo sapiens, HTS, read-out: average effective concentration, CHRF288-11. Format: cell-based, human.
The test system of test [7] is CMK. The test can be described thus: cells. Set-up: species or system AML cell lines (8); Secondary HTS, 10-point dose-response in triplicate, Cell Titer Glo viability, four-parameter fit EC50. The note with it: Homo sapiens, CMK, 72 h, read-out: CMK.
Test [8] concerns MV4-11. Put plainly: cells. The note with it: Homo sapiens, MV4-11, 72 h, read-out: MV4-11. Set-up: species or system AML cell lines (8); Secondary HTS, 10-point dose-response in triplicate, Cell Titer Glo viability, four-parameter fit EC50.
In test [9] the test system is U937. The test can be described thus: cells. Set-up: species or system AML cell lines (8); Secondary HTS, 10-point dose-response in triplicate, Cell Titer Glo viability, four-parameter fit EC50. As to conditions: Homo sapiens, U-937, 72 h, read-out: U937.
The subject of test [10] is MOLM-13. The test can be described thus: Secondary dose-response HTS, Cell Titer Glo. It counts as cell-based, human. As to conditions: Homo sapiens; secondary high-throughput screen; MOLM-13; read-out: average effective concentration, MOLM-13.
Test [11] has as its system CMS. The test can be described thus: cells. As to conditions: 72 h, read-out: CMS. Also on record: species or system AML cell lines (8); Secondary HTS, 10-point dose-response in triplicate, Cell Titer Glo viability, four-parameter fit EC50.
The subject of test [12] is MV4-11. The test can be described thus: Secondary dose-response HTS, Cell Titer Glo. It counts as cell-based, human. As to conditions: secondary high-throughput screen, MV4-11; for EC50: Homo sapiens, read-out: average effective concentration, MV4-11.
In test [13] the test system is CHRF288-11. The test can be described thus: cells. Also on record: species or system AML cell lines (8); Secondary HTS, 10-point dose-response in triplicate, Cell Titer Glo viability, four-parameter fit EC50. As to conditions: 72 h, read-out: CHRF288-11.
Test [14] relates to MOLM-13. Put plainly: cells. Also on record: species or system AML cell lines (8); Secondary HTS, 10-point dose-response in triplicate, Cell Titer Glo viability, four-parameter fit EC50. As to conditions: Homo sapiens, MOLM-13, 72 h, read-out: MOLM-13.
[15] abbreviates: secondary high-throughput screen.
The mark [16] stands for this setting: Homo sapiens, secondary high-throughput screen.

Like-named read-outs stand apart in the source and are kept apart here.

Regarding EVODIAMINE, the EC50 in test [1] turned out to be 1.5 µM; in test [2], 0.45 µM; in test [3] ([…]) it was 4.4 µM; in test [4], 2.1 µM; in [5] (setting [15]) it was 0.3 µM.
Take `COC1=C2C[C@@H](C)C[C@H](OC)[C@H](O)[C@@H](C)/C=C(\C)[C@H](OC(N)=O)[C@@H](OC)/C=C\C=C(/C)C(=O)NC(=CC1=O)C2=O` [GELDANOMYCIN]: the “average effective concentration, CMS” value in test [1] is given as “Inactive”. The “average effective concentration, M07e” value in [3] (M07e) is “Inactive”. Besides, the “average effective concentration, CHRF288-11” value in test [6] is recorded as “Inactive”. In addition, in test [5] (setting [15]), the “average effective concentration, CMK” value is recorded as “Inactive”.
Consider `C=C(C)[C@@H](CC=C(C)C)C[C@@]12C[C@@H](CC=C(C)C)C(C)(C)[C@@](CC=C(C)C)(C(=O)C(C(=O)c3ccc(O)c(O)c3)=C1O)C2=O` [GARCINOL], for which the EC50 is more than 10 µM in test [7]; more than 10 µM in test [8]; 5.4 µM in test [2] (Homo sapiens); more than 10 µM in test [3] (Homo sapiens, M-07e, […]); more than 10 µM in test [9]; 5.8 µM in test [6]. Also, the EC50 in test [10] was 5.1 µM; in test [11], more than 10 µM.
As for `Cc1cc(C(C)Nc2ccccc2)c2nc(N3CCOCC3)cc(=O)n2c1` (centres unmarked) [TGX-221], in test [1], the “average effective concentration, CMS” value was “Inactive”. Also, the “average effective concentration, ML-2” value in test [2] is on record as “Inactive”. Besides, the “average effective concentration, M07e” value in test [3] (M07e) is “Inactive”. In test [6], the “average effective concentration, CHRF288-11” value is recorded as “Inactive”. Besides, the “average effective concentration, U937” value in test [4] is reported as “Inactive”.
`Nc1ncnc2c1ncn2[C@@H]1C=C(CO)[C@@H](O)[C@H]1O` [NEPLANOCIN A]: the “average effective concentration, MV4-11” value in test [12] is on record as “Inactive”. Further, the “average effective concentration, CMS” value in test [1] was “Inactive”. For the same compound, the “average effective concentration, M07e” value in test [3] ([…]) was “Inactive”.
In the case of `Cc1ccc(F)c(NC(=O)Nc2ccc(-c3cccc4[nH]nc(N)c34)cc2)c1` [LINIFANIB], the EC50 was more than 10 µM in test [13]; 0.003 µM in test [12]; more than 10 µM in [2] (Homo sapiens); more than 10 µM in test [3] (Homo sapiens, M-07e, M07e); 0.007 µM in test [10]; 6 µM in test [4] (Homo sapiens, U-937). The EC50 in test [5] (Homo sapiens) was 5.8 µM; in test [11], more than 10 µM.
Consider `O=C(CCCCCCC(=O)Nc1ccc([C@H]2O[C@@H](CSc3nc(-c4ccccc4)c(-c4ccccc4)o3)C[C@@H](c3ccc(CO)cc3)O2)cc1)NO` [TUBACIN], for which the EC50 in test [7] was more than 10 µM; in [8] it was more than 10 µM; in test [2] (Homo sapiens), more than 10 µM; in test [3] (Homo sapiens, M-07e, […]), 2.5 µM; in test [9], more than 10 µM; in test [6], more than 10 µM. Besides, the EC50 in test [10] and in test [11] was more than 10 µM in each case.
As for `COC(=O)[C@H](CC(C)C)NC(=O)c1ccc(NC[C@@H](N)CS)cc1-c1cccc2ccccc12` [GGTI 298], the “average effective concentration, CMS” value in [1] is listed as “Inactive”. Further, the “average effective concentration, ML-2” value in test [2] was “Inactive”. In addition, the “average effective concentration, M07e” value in [3] (M07e) is “Inactive”. Further, the “average effective concentration, CHRF288-11” value in test [6] was “Inactive”. Moreover, the “average effective concentration, CMK” value in test [5] (setting [15]) is listed as “Inactive”.
Turning to `Cn1ncnc1[C@H]1c2n[nH]c(=O)c3cc(F)cc(c23)N[C@@H]1c1ccc(F)cc1` [BMN 673], the EC50 was more than 10 µM in test [14]; more than 10 µM in test [8]; 0.079 µM in [2] (Homo sapiens); 9.2 µM in [3] (Homo sapiens, M-07e, M07e); 0.074 µM in test [6]; 3.6 µM in [4] (Homo sapiens, U-937). Besides, the EC50 is 0.21 µM in test [5] (setting [16]) and more than 10 µM in test [11].
`CCc1c(O)cc(O)c(C(=O)c2ccc(OCCN3CCOCC3)c(OC)c2)c1CC(=O)N(CCOC)CCOC.Cl` [KW-2478]: the “average effective concentration, CMS” value in [1] was “Inactive”. Moreover, the “average effective concentration, M07e” value in test [3] (M07e) is listed as “Inactive”. For the same compound, the “average effective concentration, U937” value in test [4] was “Inactive”.
As for `O=C(CCCCCCC(=O)Nc1cccnc1)NO` [PYROXAMIDE], the EC50 in test [13] was more than 10 µM; in [12], 1.6 µM; in test [7], more than 10 µM; in test [2] (Homo sapiens), more than 10 µM; in [3] (Homo sapiens, M-07e, M07e), 8.2 µM; in test [10] it was 6 µM. The EC50 in [4] (Homo sapiens, U-937) is 5.8 µM; in test [11] it was more than 10 µM.
For `O=C(CCCCCN1C(=O)c2cccc3cccc(c23)C1=O)NO`, the EC50 was found to be 0.6 µM in test [1] (Homo sapiens, HTS); 4.1 µM in test [2] (Homo sapiens); 0.33 µM in test [3] (Homo sapiens, M-07e, M07e); 1.7 µM in test [6]; 0.68 µM in test [4] (Homo sapiens, U-937); 0.2 µM in test [5] (setting [16]).
Regarding `Oc1cccc(-c2nc(N3CCOCC3)c3oc4ncccc4c3n2)c1` [PIK 103], the “average effective concentration, CMS” value in test [1] is on record as “Inactive”. Besides, in test [2], the “average effective concentration, ML-2” value is “Inactive”. Moreover, the “average effective concentration, M07e” value in test [3] (M07e) is on record as “Inactive”. Further, in test [6], the “average effective concentration, CHRF288-11” value is “Inactive”.
Turning to `C/C(=C\C(=O)Nc1ccccc1C(=O)O)c1ccc2ccccc2c1` [BIBR-1532], the “average effective concentration, MV4-11” value in [12] is given as “Inactive”. Further, the “average effective concentration, CMS” value in test [1] is on record as “Inactive”. For the same compound, the “average effective concentration, M07e” value in [3] (M07e) was “Inactive”. Further, the “average effective concentration, U937” value in [4] is “Inactive”. Besides, in [5] (setting [15]), the “average effective concentration, CMK” value was “Inactive”.
As for `CCc1c2c(nc3ccc(OC(=O)N4CCC(N5CCCCC5)CC4)cc13)-c1cc3c(c(=O)n1C2)COC(=O)[C@]3(O)CC` [IRINOTECAN], the EC50 in [12] was 3.1 µM; in test [7] it was more than 10 µM; in test [2] (Homo sapiens) it was 4 µM; in test [3] (Homo sapiens, M-07e, M07e), more than 10 µM; in test [6] it was 4.5 µM; in [10], 2.5 µM. In addition, the EC50 in test [4] (Homo sapiens, U-937) was 10 µM; in [11], more than 10 µM.
`C[S+]([O-])CCCCN=C=S` (centres unmarked) [SULFORAPHANE]: the EC50 is more than 10 µM in test [1] (Homo sapiens, HTS); more than 10 µM in test [2] (Homo sapiens); more than 10 µM in [3] (Homo sapiens, M-07e, M07e); more than 10 µM in test [6]; more than 10 µM in test [4] (Homo sapiens, U-937).
For `O=C(c1ccc(Cl)cc1Cl)n1nnc2ccccc21` [ITSA1], the “average effective concentration, MV4-11” value in test [12] is given as “Inactive”. Besides, the “average effective concentration, CMS” value in [1] is “Inactive”. Besides, in test [3] (M07e), the “average effective concentration, M07e” value was “Inactive”. Further, the “average effective concentration, U937” value in [4] is on record as “Inactive”. In addition, the “average effective concentration, CMK” value in test [5] (setting [15]) was “Inactive”.
As for `CC(C)(O)[C@@H]1CC[C@](C)([C@H]2[C@@H](O)C[C@@]3(C)[C@@H]4C[C@H](O[C@@H]5O[C@H](CO)[C@@H](O)[C@H](O)[C@H]5O)[C@H]5C(C)(C)[C@@H](O[C@@H]6OC[C@@H](O)[C@H](O)[C@H]6O)CC[C@@]56C[C@@]46CC[C@]23C)O1` [ASTRAGALOSIDE IV], in test [12], the “average effective concentration, MV4-11” value is reported as “Inactive”. The “average effective concentration, CMS” value in test [1] is on record as “Inactive”. Further, the “average effective concentration, M07e” value in [3] (M07e) was “Inactive”. Also, the “average effective concentration, U937” value in test [4] is reported as “Inactive”. In addition, the “average effective concentration, CMK” value in [5] (setting [15]) was “Inactive”.
With `COc1cc(Nc2c(C#N)cnc3cc(OCCCN4CCN(C)CC4)c(OC)cc23)c(Cl)cc1Cl` [BOSUTINIB], the EC50 was determined as 3.8 µM in test [12]; 10 µM in [2] (Homo sapiens); 4.8 µM in test [3] (Homo sapiens, M-07e, M07e); 3.8 µM in test [6]; 2.7 µM in test [10]; 3.8 µM in test [4] (Homo sapiens, U-937). For the same compound, the figures for the EC50 in test [5] (Homo sapiens) and in test [11] were 1.1 µM and more than 10 µM, respectively.
With `O=C(/C=C/c1cccnc1)NCCCCC1CCN(C(=O)c2ccccc2)CC1` [DAPORINAD], the EC50 in [12] turned out to be 0.001 µM; in test [2] (Homo sapiens), 0.001 µM; in [3] (Homo sapiens, M-07e, M07e) it was 0.001 µM; in [6], 0.012 µM; in [10], 0.001 µM; in [4] (Homo sapiens, U-937), 0.001 µM. In addition, the EC50 in [5] (setting [16]) was 0.001 µM; in [11] it was more than 10 µM.
